Assay results from patent publication US20190247376A1, “NICOTINIC ACETYLCHOLINE RECEPTOR AGONIST ATTENUATES ILC2-DEPENDENT AIRWAY HYPERREACTIVITY” (University of Southern California, priority 2016, published 2019).

What was measured:
[1] = test system: lung ILC2s; assay: Flow cytometry of proliferation, transcription factor and signalling markers in lung ILC2s; assay type: cell-based, mouse; details: BALB/cByJ mice, rm-IL-33 0.5 μg, agonist 125 μg, three consecutive days
Description: FIGS. 5A-5F: Cholinergic signal attenuates ILC2 proliferation and GATA3 expression. (FIG. 5A) Mean fluorescence intensity of Ki67 and percentage of Ki67+ cells in isolated lung ILC2s, stimulated with IL-33 in the absence and presence of α7nAChR. (FIG. 5B) Mean fluorescence intensity of GATA3 in isolated lung ILC2s, stimulated with IL-33 in the absence and presence of α7nAChR. One representative experiment of two is shown (n=5; Student's t test *, p<0.05; **, p<0.01; ***p<0.001). […] FACS-purified ILC2s from WT mice challenged with rm-IL-33 with or without α7nAChR agonist as described in FIG. 3A were quantified by NanoString nCounter technology. Data range from −1 to +1 for the most reduced and most increased gene expression, respectively. (FIG. 5D) Expression of NF-κB p65 in isolated lung ILC2s from mice challenged with IL-33 with (dotted line) or without (thick line) α7nAChR agonist. The level of isotype-matched stain control is shown as a gray-filled histogram. (FIG. 5E) Expression of phosphorylated IKKα/β (Ser176/180) in isolated lung ILC2s stimulated with IL-33, with (dotted line) or without (thick line) α7nAChR agonist for 24 hours. The level of isotype-matched stain control is shown as a gray-filled histogram. (FIG. 5F) Mean fluorescence intensity of phosphorylated IKKα/β with or without α7nAChR agonist.
FIGS. 9A-9C: Effect of α7nAChR agonist on some marker expressions by ILC2s. A cohort of BALB/cByJ mice were intranasally challenged with rm-IL-33 (0.5 μg) with or without α7nAChR agonist (125 μg) for three consecutive days. Histogram and MFI of CD25 (FIG. 9A), CD127 (FIG. 9B) and ST2 (FIG. 9C) in isolated lung ILC2s. Data are representative of at least two independent experiments and are presented as means±SEM (n=4; Student's t test *, p<0.05).
Biotinylated anti-mouse lineage (CD3e (145-2C11), CD45R (RA3-3B2), Gr-1 (RB6-8C5), CD11c (N418), CD11b (M1/70), Ter119 (TER-119), NK1.1 (PK136), TCR-β (H57-597), TCR-γδ (GL3), and FcεRIα (MAR-1), Streptavidin-FITC, FITC anti-mouse CD3 (145-2C11), BV510 anti-mouse CD4 (RM4-5), APC-Cy7 anti-mouse CD25 (PC61), PE anti-mouse CD25 (PC61), BV421 anti-mouse CD25 (PC61), BV510 anti-mouse CD90.2 (53-2.1), APC anti-mouse CD127 (A7R34), PE-Cy7 anti-mouse CD127 (A7R34), FITC anti-mouse CD45 (30F-11), PE/Cy7 anti-mouse CD45 (30-F11), PE anti-mouse IL-5 (TRFK5), BV421 anti-mouse GATA3 (16E10A23), 7-AAD Viability staining solution, purchased from BioLegend (San Diego, Calif.). PE anti-mouse ST2 (IL-33R, RMST2-2), PerCP-eFluor710 anti-Mouse ST2 (RMST2-2), Streptavidin APC-eFluor780, Alexa Fluor647 labeled anti-IL-4 (clone 11B11), eFluor 450 anti-mouse CD45 (30F-11), eFluor450 anti-CD44 (clone IM7), eFluor-660 anti-mouse Ki-67 (SollA15), PE/Cy7 anti-mouse IL-13 (eBio13A), anti-mouse BCL-2 (10C4), were purchased from eBioscience. Alexa Fluor 488 anti-mouse p65-NF-κB (532301) was purchased from R&D Systems (dilution 1:50). Alexa Fluor 647 conjugated α-bungarotoxin (Invitrogen, San Diego, Calif.). PE anti-mouse Phospho-IKKα/β (Ser 176/180) (16A6) was purchased from Cell Signaling Technology (dilution 1:50). PE anti-rat α7nAChR (319) was purchased from Santa Cruz Biotechnology (dilution 1:50). This antibody has been used to identify this receptor previously in several studies^69. Lineage marker antibodies were used at the dilution of 1:400, unless mentioned otherwise other antibodies were used at the dilution of 1:200.
Intracellular staining was performed using BD Cytofix/Cytoperm kit (BD Bioscience, San Jose, Calif.) according to the manufacturer's instructions. For analysis of GATA3 and Ki-67 expression, freshly isolated cells were fixed and permeabilized using Fixation/Permeabilization buffer kit (eBioscience) according to the manufacturer's instructions and as previously described^70.

[2] = cited from earlier work

Compound	expression of CD25, CD127, and ST2 by ILC2s [1]	AHR ([2]; HDM-induced asthma model)	Th2 cytokines ([2]; HDM-induced asthma model)	HDM-induced allergic lung inflammation ([2]; asthma model)
3-[(3E)-3-[(2,4-dimethoxyphenyl)methylidene]-5,6-dihydro-4H-pyridin-2-yl]pyridine [GTS-21]	did not alter	–	–	–
CN1CCCC1c1cccnc1 (stereo not shown) [nicotine]	–	not suppressed	suppression	attenuated
